Numbers after ± are expanded uncertainties.
Test: mn = molality of the nth substance listed, in mol/kg
Settings: Liquid, Vibrating tube method

[I-].[K+] [potassium iodide] + O
mass density [kg/m3]
Settings | 283.15 K | 298.12 K | 323.07 K | 348.04 K | 372.99 K | 397.97 K | 422.94 K | 447.94 K | 472.96 K
1050 kPa, m1 = 0.669 | 1078.98 ± 0.14 | 1074.75 ± 0.15 | 1064.04 ± 0.14 | 1049.72 ± 0.14 | 1032.6 ± 0.13 | 1012.71 ± 0.13 | 990.31 ± 0.13 | 965.35 ± 0.14 | –
1050 kPa, m1 = 0.9 | – | 1100.27 ± 0.15 | 1088.99 ± 0.15 | 1074.24 ± 0.14 | 1056.8 ± 0.14 | 1036.96 ± 0.13 | 1014.85 ± 0.13 | 990.56 ± 0.13 | –
1050 kPa, m1 = 1.063 | 1122.95 ± 0.16 | 1117.9 ± 0.16 | 1106.19 ± 0.15 | 1091.2 ± 0.14 | 1073.46 ± 0.14 | 1053.24 ± 0.13 | 1030.64 ± 0.13 | 1005.63 ± 0.12 | –
10020 kPa, m1 = 0.669 | 1083.16 ± 0.17 | 1078.81 ± 0.17 | 1067.95 ± 0.16 | 1053.73 ± 0.15 | 1036.79 ± 0.14 | 1017.19 ± 0.13 | 995.34 ± 0.13 | 970.94 ± 0.15 | 944.19 ± 0.17
10020 kPa, m1 = 0.9 | – | 1104.27 ± 0.19 | 1092.94 ± 0.18 | 1078.29 ± 0.17 | 1061.02 ± 0.16 | 1041.47 ± 0.14 | 1019.62 ± 0.13 | 996.18 ± 0.13 | –
10020 kPa, m1 = 1.063 | 1127.11 ± 0.21 | 1121.98 ± 0.2 | 1110.17 ± 0.19 | 1095.23 ± 0.18 | 1077.72 ± 0.17 | 1057.79 ± 0.15 | 1035.74 ± 0.14 | 1011.23 ± 0.13 | 984.84 ± 0.14
19970 kPa, m1 = 0.669 | 1087.75 ± 0.21 | 1083.04 ± 0.21 | 1072.19 ± 0.19 | 1057.99 ± 0.17 | 1041.3 ± 0.16 | 1022.06 ± 0.14 | 1000.61 ± 0.13 | 976.95 ± 0.15 | 950.96 ± 0.19
19970 kPa, m1 = 0.9 | – | 1108.67 ± 0.24 | 1097.21 ± 0.22 | 1082.62 ± 0.2 | 1065.55 ± 0.18 | 1046.32 ± 0.16 | 1024.97 ± 0.14 | 1002.22 ± 0.13 | –
19970 kPa, m1 = 1.063 | 1131.7 ± 0.27 | 1126.32 ± 0.26 | 1114.52 ± 0.24 | 1099.65 ± 0.22 | 1082.29 ± 0.2 | 1062.77 ± 0.18 | 1041.07 ± 0.16 | 1017.26 ± 0.13 | 991.38 ± 0.14
29900 kPa, m1 = 0.669 | 1092.18 ± 0.26 | 1087.37 ± 0.25 | 1076.42 ± 0.23 | 1062.23 ± 0.2 | 1045.73 ± 0.18 | 1026.71 ± 0.15 | 1005.73 ± 0.13 | 982.65 ± 0.15 | 957.4 ± 0.2
29900 kPa, m1 = 0.9 | – | 1112.93 ± 0.3 | 1101.41 ± 0.27 | 1086.89 ± 0.25 | 1070.01 ± 0.22 | 1050.95 ± 0.19 | 1030.16 ± 0.16 | 1007.94 ± 0.14 | –
29900 kPa, m1 = 1.063 | 1136.2 ± 0.34 | 1130.67 ± 0.33 | 1118.76 ± 0.3 | 1103.95 ± 0.28 | 1086.83 ± 0.25 | 1067.47 ± 0.21 | 1046.25 ± 0.18 | 1022.96 ± 0.15 | 997.97 ± 0.13
39830 kPa, m1 = 0.669 | 1096.51 ± 0.31 | 1091.56 ± 0.3 | 1080.45 ± 0.27 | 1066.38 ± 0.24 | 1050.01 ± 0.21 | 1031.29 ± 0.17 | 1010.72 ± 0.14 | 988.1 ± 0.15 | 963.57 ± 0.2
39830 kPa, m1 = 0.9 | – | 1117.15 ± 0.36 | 1105.46 ± 0.33 | 1091.06 ± 0.3 | 1074.32 ± 0.26 | 1055.56 ± 0.22 | 1035.28 ± 0.18 | 1013.36 ± 0.15 | –
39830 kPa, m1 = 1.063 | 1140.54 ± 0.41 | 1134.96 ± 0.4 | 1122.89 ± 0.37 | 1108.16 ± 0.34 | 1091.17 ± 0.3 | 1072.16 ± 0.25 | 1051.3 ± 0.21 | 1028.47 ± 0.17 | 1004.2 ± 0.13
49760 kPa, m1 = 0.669 | 1100.74 ± 0.36 | 1095.69 ± 0.35 | 1084.42 ± 0.32 | 1070.32 ± 0.28 | 1054.18 ± 0.24 | 1035.78 ± 0.19 | 1015.55 ± 0.15 | 993.34 ± 0.14 | 969.44 ± 0.2
49760 kPa, m1 = 0.9 | – | 1121.3 ± 0.43 | 1109.41 ± 0.39 | 1095.03 ± 0.35 | 1078.51 ± 0.3 | 1060.02 ± 0.25 | 1040.03 ± 0.21 | 1018.68 ± 0.16 | –
49760 kPa, m1 = 1.063 | 1144.78 ± 0.49 | 1139.11 ± 0.48 | 1126.88 ± 0.44 | 1112.21 ± 0.4 | 1095.44 ± 0.35 | 1076.71 ± 0.3 | 1056.19 ± 0.25 | 1033.81 ± 0.19 | 1010.14 ± 0.15
59680 kPa, m1 = 0.669 | 1104.92 ± 0.43 | 1099.67 ± 0.41 | 1088.3 ± 0.37 | 1074.35 ± 0.33 | 1058.24 ± 0.27 | 1040.1 ± 0.22 | 1020.17 ± 0.17 | 998.49 ± 0.14 | 975.11 ± 0.2
59680 kPa, m1 = 0.9 | – | 1125.31 ± 0.5 | 1113.37 ± 0.46 | 1099.04 ± 0.41 | 1082.5 ± 0.35 | 1064.32 ± 0.3 | 1044.78 ± 0.24 | 1023.8 ± 0.18 | –
59680 kPa, m1 = 1.063 | 1149.02 ± 0.58 | 1143.14 ± 0.56 | 1130.86 ± 0.52 | 1116.3 ± 0.47 | 1099.61 ± 0.41 | 1081.09 ± 0.35 | 1060.87 ± 0.29 | 1038.97 ± 0.22 | 1015.81 ± 0.16
68120 kPa, m1 = 0.669 | 1108.52 ± 0.48 | 1103 ± 0.46 | 1091.53 ± 0.42 | 1077.66 ± 0.37 | 1061.64 ± 0.31 | 1043.65 ± 0.25 | 1024 ± 0.19 | 1002.64 ± 0.14 | 979.68 ± 0.19
68120 kPa, m1 = 0.9 | – | 1128.62 ± 0.56 | 1116.58 ± 0.51 | 1102.03 ± 0.46 | 1085.89 ± 0.4 | 1067.94 ± 0.33 | 1048.68 ± 0.27 | 1027.98 ± 0.2 | –
68120 kPa, m1 = 1.063 | 1152.59 ± 0.65 | 1146.49 ± 0.63 | 1134.11 ± 0.58 | 1119.62 ± 0.53 | 1103.03 ± 0.46 | 1084.7 ± 0.4 | 1064.81 ± 0.32 | 1043.19 ± 0.25 | 1020.4 ± 0.18

From the NIST ThermoML archive (doi:10.1021/je2013704)
